The values below come from patent publication US12674038B2, “Composition and method for microbial control for use with polymers” (MICROBAN PRODUCTS COMPANY, priority 2022, dated 2026).

The test deals with Escherichia coli (gram-negative bacteria). The test can be described thus: Antimicrobial efficacy of polymer samples against Escherichia coli, ISO22196 test method. The settings on record: E. coli.

SMILES strings stand for the structures.

As for `O=C(O)c1ccccc1` [GBA, benzoic acid], the “log reduction (consistent antimicrobial efficacy)” value (5250 ppm level in TPU) is reported as above 1. Further, the log reduction entry (TPU, 4500 ppm GBA alone) was “less than 1”.
